Experimental data reported in PubChem BioAssay AID449764 (Southern Research Specialized Biocontainment Screening …, 2010).

Tested on: Mycobacterium tuberculosis H37Rv growth inhibition, no glycerol
Assay: Mycobacterium tuberculosis H37Rv growth inhibition, no glycerol, confirmatory dose response (AID 449764);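 also: growth read after 7 days of incubation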
Settings: for IC90: measured here: IC90 growth inhibition

| Structure (SMILES) | IC50 [µM] | IC90 [µM] |
| --- | --- | --- |
| O=C(c1cnn2c(C(F)F)cc(-c3ccccc3)nc12)N1CCc2ccccc2C1 | 35.4 | 48.6 |
| Cc1cc(N/N=C/c2ccccc2[N+](=O)[O-])nc(-n2nc(C)cc2C)n1 | 3.42 | 5.14 |
| O=C(Nc1nc(-c2cc(Cl)sc2Cl)cs1)c1cccs1 | 67.7 | > 100 |
| CNC(CC(=O)c1ccc([N+](=O)[O-])cc1)C(Cl)(Cl)Cl (stereo not given) | 5.37 | 7.81 |
| CCOC(=O)[C@@H]1[C@H]2COc3cc(OC)ccc3[C@H]2N2C(=O)N(c3ccc(C(F)(F)F)cc3)C(=O)[C@]12C | 5.78 | 6.27 |
| COc1ccc(CCNc2cc(-c3ccccc3)nc3ncnn23)cc1 | < 0.2 | 27.3 |
| CCc1ccc(C2=NN(c3ccc(S(N)(=O)=O)cc3)C(c3ccc(F)cc3)C2)cc1 (stereo not given) | 40.5 | 53.3 |
| CCOc1ccc(N2CC(=O)Nc3ccccc3NCC2=O)cc1 | 55.7 | 83.1 |
| CC1CCCC(NC(=O)NC(=O)CCl)C1C (stereo not given) | 8.62 | 14.3 |
| CCOc1ccc(-c2[nH]ncc2-c2ccc(Cl)cc2)c(O)c1 | 44.8 | 72.3 |
| Cc1ccccc1NC1=C/C(=N\S(=O)(=O)c2cccs2)c2ccccc2C1=O | 11.3 | 12.3 |
| CNC(=S)Nc1ccc(N2CCN(c3ccc(C(F)(F)F)cn3)CC2)nc1 | 9.42 | > 100 |
| CC(=O)/C=C(\C)Nc1ccccc1O | 4.45 | 5.87 |
| CCc1cccc2c(=O)c(C(=O)N3CCOCC3)c[nH]c12 | 15.3 | 22.9 |
| CN(C)S(=O)(=O)c1cccc(NC(=O)CSc2cccc3cccnc23)c1 | 60.6 | 68.2 |
| CN(C)N=Nc1nc[nH]c1C(N)=O | 5.04 | 8.38 |
| C#CCOCCOCCOCCNc1nc(N2CCN(C(=O)C(Cc3ccc(O)cc3)n3cc(C(N)CC(C)C)nn3)CC2)nc(N2CCN(C(=O)C(Cc3cc4ccccc4[nH]3)n3cc(C(N)Cc4ccc(O)cc4)nn3)CC2)n1 (stereo not given) | 16.9 | 23.8 |
| O=C(Cc1ccccc1)N/N=C/c1ccc2cccc(O)c2n1 | 11.3 | 12.6 |
| CCCn1nnnc1NC(=O)c1ccc(C)cc1Cl | 16.1 | 33.1 |
| CC(Oc1ccc2ccccc2c1)C(=O)NNC(=S)NC(=O)c1ccco1 (stereo not given) | 22.4 | 31.9 |
| Cc1ncsc1CCOC(=O)c1ccc([N+](=O)[O-])cc1 | 20.1 | 37.2 |

| Structure (SMILES) | IC50 [µM] | IC90 [µM] |
| --- | --- | --- |
| CCCCCCN=C1CC(C)(C)CC(=O)/C1=C(/O)CCC | 71 | > 100 |
| CC(O)CNc1nc2ccccc2n1-c1ncnc2sc3c(c12)CCC3 (stereo not given) | 35.2 | 42.1 |
| CCCCn1c(O)c(/C=C2/C=CC=N2)c(=O)[nH]c1=O | 12.1 | 23.6 |
| CN1CC=C(/C=C/c2ccc(-c3ccccc3)cc2)CC1 | 24.5 | 28 |
| CCOc1ccc(-c2csc(/C(C#N)=C\c3ccc(O)c([N+](=O)[O-])c3)n2)cc1 | 16.7 | > 100 |
| Cc1nc(N2CCN(c3ccccn3)CC2)c2c(C)c(C(=O)N3CCN(c4ccc(F)cc4)CC3)sc2n1 | 11.2 | 12.9 |
| O=C(CCl)Nc1nccs1 | 4.87 | 9.14 |
| COc1cc(C)ccc1S(=O)(=O)N1CCN(C23CC4CC(CC(C4)C2)C3)CC1 | 46.5 | 51.1 |
| O=C(CCl)NCc1cc(-c2ccc(Cl)cc2)no1 | 0.35 | > 100 |
| CC(C)C[C@H](NC(=O)c1nc[nH]c1C(=O)NC1CCN(C(=O)OC(C)(C)C)CC1)C(=O)OCc1ccccc1 | 21.8 | 29.6 |
| [O-][n+]1c2ccccc2c2n1CCN1CCOC21c1ccc(Cl)cc1 (stereo not given) | 51 | 79.3 |
| COc1cc(C(=O)N/N=C/c2cc([N+](=O)[O-])cs2)cc(OC)c1OC | 8.58 | > 100 |
| CC(C)(Oc1ccc(Cl)cc1)C(=O)OCC(=O)N1CCN(c2ccccc2)CC1 | 52 | 80.9 |
| Cc1cc(-c2ccc(Cl)cc2)c2cnn(C(C)C)c2n1 | 38.9 | 58.1 |
| CSC1=NC(C)(C)C=C(/C=C/c2ccc(Cl)cc2)N1 | 38.3 | 56.7 |
| CCCCCCCNC(=O)C1(CC2CC(c3cccc(Br)c3)=NO2)CCNCC1 (stereo not given) | 52.1 | 80.4 |
| COCCNC(=S)N/N=C(\C)c1ccc(OC)cc1 | 43.6 | 49 |
| COc1cc(C#Cc2c(-c3cncn3C)n(C)c3ccc(-c4cnc(N5CCOCC5)nc4)cc23)cc(OC)c1 | 49.5 | 55 |
| CC(C)OC(=O)/C(C#N)=C/c1ccc(-c2ccc(SC(F)F)cc2)o1 | 5.19 | 8.24 |
| c1ccc2c(c1)ncn2CCCCOc1ccc2c(c1)CCC2 | 23.9 | 27.4 |
| N[C@@H](CCl)C(=O)O | 35.4 | 55.2 |

| Structure (SMILES) | IC50 [µM] | IC90 [µM] |
| --- | --- | --- |
| COc1cc(OC)nc(-n2ncc(Br)c(Br)c2=O)n1 | 22.5 | 25.1 |
| CC(C)(C)c1nn(-c2ccccc2)c2[nH]c(=O)c(CNCc3ccc4c(c3)OCO4)cc12 | 20.8 | 34.4 |
| C/C(=N\NC(=O)c1ccc(O)cc1)c1ccc2c(c1)Nc1ccccc1S2 | 50.2 | 95.6 |
| Cc1cc(-c2cc(-c3ccccc3)on2)nc(NC2CCCC2)n1 | 34.5 | 56.6 |
| Nc1c(C(=O)NC2CCCCC2)nsc1C(=O)OCC(=O)NC1CCCCC1 | 2.89 | 3.4 |
| COc1ccc(-c2cc(-c3ccc(OC)cc3)[nH]n2)cc1 | – | > 50 |
| COc1cc(N)c(Cl)cc1C(=O)N[C@H]1CCN(CCCOc2ccc(F)cc2)C[C@H]1OC | 48.7 | 89 |
| O=C(CN1CCN(c2ccccc2O)CC1)Nc1ccccc1C(=O)NCCc1ccccc1 | 72.7 | > 100 |
| CCOC1OC(=O)C(Cl)=C1Nc1ccccc1C (stereo not given) | 3.39 | 7.24 |
| Cc1cccc(N2CCN(CC(=O)Nc3nccs3)CC2)c1C | 39.3 | 69.2 |
| O=C(C[n+]1ccc(C(=O)c2ccccc2)cc1)Nc1ccc(C(F)(F)F)cc1 | 23.4 | 26.7 |
| Cc1ccc(-n2cc(CNCCn3nc(C)cc3C)c(-c3ccc(F)cc3)n2)cc1 | 8.2 | 13.5 |
| COc1ccc(-c2cc3nc(CCl)[nH]c(=O)c3s2)cc1 | 5.94 | 6.45 |
| CCOc1ccc(-c2cc(C(=O)NCCCn3ccnc3)c3cc(Br)ccc3n2)cc1 | 24.9 | 27.6 |
| CCOC(=O)c1ccc2c(c1)C(=O)N(C1CCCCC1)C2=O | 85 | > 100 |
| CS(=O)(=O)c1ncc(Cl)c(C(=O)Nc2ccc(OC(F)F)cc2)n1 | 13.6 | > 25 |
| CC1CCN(C(=O)c2ccc(-c3ccccc3Cl)o2)CC1 | 41 | 60.1 |
| O=C([O-])c1ccccc1-[n+]1c(-c2ccccc2)cc(-c2ccccc2)cc1-c1ccccc1 | 22 | 24.5 |
| O=C(Oc1ccccc1-c1nnco1)c1ccc(Cl)cc1 | 27.8 | 73.6 |
| CC1(C)CC(=O)C2=C(C1)OC(N)=C([N+](=O)[O-])C2c1ccc(C#N)s1 (stereo not given) | 79.7 | 97.7 |
| O=[N+]([O-])c1ccc(O)c(-c2cc(C(F)(F)F)nc(-c3ccccc3)n2)c1 | 20.4 | 22.1 |
